ChEMBL document CHEMBL5257132, “Discovery of a Novel Series of Potent SHP2 Allosteric Inhibitors” (ACS Med Chem Lett, 2023)
Converted amounts (≈) assume the structure as drawn.

Legend:
[1] = target: T1, Tyrosine-protein phosphatase non-receptor type 11 (Homo sapiens, UniProt Q06124); assay: Allosteric inhibition of recombinant human SHP2 using IRS1 peptide and DiFMUP as substrate incubated for 30 mins followed by DiFMUP addition and measured after 30 mins by fluorescence based microplate reader analysis
T1 sequence (Q06124 whole entry): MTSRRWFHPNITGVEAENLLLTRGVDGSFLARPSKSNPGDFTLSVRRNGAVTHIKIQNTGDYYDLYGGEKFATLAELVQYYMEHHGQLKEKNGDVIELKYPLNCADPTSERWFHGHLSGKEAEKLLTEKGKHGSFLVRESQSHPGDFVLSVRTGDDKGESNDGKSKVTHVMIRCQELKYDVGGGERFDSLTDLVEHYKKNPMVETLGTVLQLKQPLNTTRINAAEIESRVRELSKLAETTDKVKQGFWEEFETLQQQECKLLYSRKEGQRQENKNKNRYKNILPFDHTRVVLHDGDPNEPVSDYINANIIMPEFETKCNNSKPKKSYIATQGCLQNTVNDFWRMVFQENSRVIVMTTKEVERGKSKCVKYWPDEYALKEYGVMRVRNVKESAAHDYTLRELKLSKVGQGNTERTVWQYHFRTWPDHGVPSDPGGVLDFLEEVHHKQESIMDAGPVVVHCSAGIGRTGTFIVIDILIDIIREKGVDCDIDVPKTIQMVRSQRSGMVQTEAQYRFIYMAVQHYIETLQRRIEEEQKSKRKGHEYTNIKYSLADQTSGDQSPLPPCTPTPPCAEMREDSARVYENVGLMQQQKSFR

[2] = Inhibition of ERK phosphorylation in human KYSE520 cells incubated for 2 hrs by TR-FRET assay; type: cell-based; details: KYSE-520, 2 h
[3] = target: Voltage-gated inwardly rectifying potassium channel KCNH2 (Homo sapiens, UniProt Q12809); assay: Inhibition of human ERG by fluorescence polarization assay; type: toxicity
[4] = Kinetic solubility of compound in FeSSIF by LCMS analysis; type: ADME; details: read-out: Kinetic_solubility
[5] = Metabolic stability in human liver microsomes assessed as intrinsic clearance at 1 uM and measured upto 60 mins in presence of NADPH as cofactor by LC-MS/MS analysis; type: ADME, Microsome; details: read-out: CLH
[6] = AUC in Sprague-Dawley rat plasma at 1 mg/kg,po administered as 60:20:20 PEG400/DMSO/H2O formulation and measured upto 24 hrs by LC-MS/MS analysis; type: ADME, organism-based; set-up: time < 24 hrs, dose 1 mg/kg, route po
[7] = system: KYSE-520 cell line; assay: Antiproliferative activity against human KYSE520 cells assessed as inhibition of cell proliferation incubated for 96 hrs by CellTiter-Glo reagent based assay; type: functional; details: KYSE-520, 96 h
[8] = Apparent permeability of compound in dog MDCK-MDR1 cells by LC-MS/MS analysis; type: ADME, cell-based, Canis lupus familiaris
[9] = AUC in Sprague-Dawley rat plasma at 1 mg/kg,po administered as 60:20:20 PEG400/DMSO/H2O formulation and measured upto 24 hrs in presence of Elacridar by LC-MS/MS analysis; type: ADME, organism-based; set-up: time < 24 hrs, dose 1 mg/kg, route po; details: with Elacridar (dose not stated)
[10] = Metabolic stability in Sprague-Dawley rat liver microsomes assessed as intrinsic clearance at 1 uM and measured upto 60 mins in presence of NADPH as cofactor by LC-MS/MS analysis; type: ADME, Microsome; details: read-out: CLH
[11] = Volume of distribution at steady state in Sprague-Dawley rat plasma at 0.5 mg/kg, iv and measured upto 24 hrs by LC-MS/MS analysis; type: ADME, organism-based; details: read-out: Vdss
[12] = Oral bioavailability in Sprague-Dawley rat plasma at 1 mg/kg administered as 60:20:20 PEG400/DMSO/H2O formulation and measured upto 24 hrs by LC-MS/MS analysis; type: ADME, organism-based
[13] = Efflux ratio of apparent permeability […] in dog MDCK-MDR1 cells by LC-MS/MS analysis; type: ADME, cell-based, Canis lupus familiaris
[14] = Cmax in Sprague-Dawley rat plasma at 1 mg/kg, po administered as 60:20:20 PEG400/DMSO/H2O formulation and measured upto 24 hrs by LC-MS/MS analysis; type: ADME, organism-based; set-up: dose 1 mg/kg, time < 24 hrs, route po
[15] = AUC in Sprague-Dawley rat plasma at 1 mg/kg,po administered as 50:50 PEG400/Labrasol formulation and measured upto 24 hrs by LC-MS/MS analysis; type: ADME, organism-based; set-up: dose 1 mg/kg, time < 24 hrs, route po
[16] = Clearance in Sprague-Dawley rat plasma at 0.5 mg/kg, iv and measured upto 24 hrs by LC-MS/MS analysis; type: ADME, organism-based
[17] = Kinetic solubility of compound in FaSSGF by LCMS analysis; type: ADME; details: read-out: Kinetic_solubility
[18] = Kinetic solubility of compound in FaSSIF by LCMS analysis; type: ADME; details: read-out: Kinetic_solubility
[19] = Half life in Sprague-Dawley rat plasma at 0.5 mg/kg, iv and measured upto 24 hrs by LC-MS/MS analysis; type: ADME, organism-based
[20] = Apparent permeability of compound at pH 7.4 at 5 uM incubated for 4 hrs by PAMPA based LC-MS/MS analysis; type: ADME

Chain of Voltage-gated inwardly rectifying potassium channel KCNH2 (Q12809 whole entry): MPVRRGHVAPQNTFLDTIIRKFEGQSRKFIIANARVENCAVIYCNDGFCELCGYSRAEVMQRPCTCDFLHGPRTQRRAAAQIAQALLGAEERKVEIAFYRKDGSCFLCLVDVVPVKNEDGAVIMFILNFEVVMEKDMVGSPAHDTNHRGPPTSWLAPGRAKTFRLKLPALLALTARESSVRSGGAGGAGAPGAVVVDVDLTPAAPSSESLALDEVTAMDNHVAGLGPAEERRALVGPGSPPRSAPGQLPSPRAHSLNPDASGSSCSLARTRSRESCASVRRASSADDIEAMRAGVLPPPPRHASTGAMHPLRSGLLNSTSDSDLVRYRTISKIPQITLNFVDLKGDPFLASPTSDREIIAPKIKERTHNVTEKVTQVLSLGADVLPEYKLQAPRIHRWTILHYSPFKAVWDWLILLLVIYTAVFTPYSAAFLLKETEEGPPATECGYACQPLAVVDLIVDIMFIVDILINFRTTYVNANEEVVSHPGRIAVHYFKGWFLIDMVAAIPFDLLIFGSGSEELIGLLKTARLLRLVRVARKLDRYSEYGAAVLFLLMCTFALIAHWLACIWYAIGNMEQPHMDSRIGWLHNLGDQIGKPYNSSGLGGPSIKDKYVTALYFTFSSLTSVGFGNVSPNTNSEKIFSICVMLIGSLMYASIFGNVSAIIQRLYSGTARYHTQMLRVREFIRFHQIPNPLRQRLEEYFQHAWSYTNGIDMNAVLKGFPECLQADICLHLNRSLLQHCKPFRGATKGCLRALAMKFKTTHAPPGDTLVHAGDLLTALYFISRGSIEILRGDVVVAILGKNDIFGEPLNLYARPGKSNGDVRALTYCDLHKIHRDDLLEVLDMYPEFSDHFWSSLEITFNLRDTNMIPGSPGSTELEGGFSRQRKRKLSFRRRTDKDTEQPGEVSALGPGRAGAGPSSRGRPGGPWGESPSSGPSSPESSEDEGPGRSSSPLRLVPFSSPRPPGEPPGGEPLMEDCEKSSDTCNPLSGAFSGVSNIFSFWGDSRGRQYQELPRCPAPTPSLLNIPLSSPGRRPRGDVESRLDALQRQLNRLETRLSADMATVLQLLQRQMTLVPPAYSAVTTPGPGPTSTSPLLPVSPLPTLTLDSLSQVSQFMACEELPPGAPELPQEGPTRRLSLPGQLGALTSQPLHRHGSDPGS

Molecule `NC[C@]1(c2ccccc2)[C@@H]2CCN(c3cnc4c(-c5cccc(Cl)c5Cl)n[nH]c4n3)C[C@@H]21` has an IC50 [1] of 9 nM, an IC50 [2] of 260 nM and an IC50 [3] of 389 nM.

For `Cc1csc([C@@]2(CN)[C@@H]3CCN(c4cnc5c(-c6ccn7nccc7c6Cl)n[nH]c5n4)C[C@@H]32)n1`, the IC50 [1] was 3 nM, the IC50 [2] was 22 nM and the IC50 [3] was 12 nM.

`NC[C@]1(c2ccccc2)[C@@H]2CN(c3nc4nc(Sc5cccnc5C(F)(F)F)cnc4[nH]3)C[C@@H]21` gave an IC50 [1] greater than 8000 nM.

Work on `NC[C@]1(c2ccsc2)[C@@H]2CCN(c3cnc4c(-c5cccc(Cl)c5Cl)n[nH]c4n3)C[C@@H]21` yielded an IC50 [1] of 8 nM, an IC50 [2] of 100 nM and an IC50 [3] of 109 nM.

Work on `N[C@]1(c2ccccc2)[C@@H]2CCN(c3cnc4c(-c5cccc(Cl)c5Cl)n[nH]c4n3)C[C@@H]21` yielded an IC50 [1] of 1460 nM.

Molecule `Cc1csc([C@@]2(CN)[C@@H]3CN(c4cnc5c(-c6ccc7nn(C)cc7c6Cl)n[nH]c5n4)C[C@@H]32)n1` has a solubility kinetic [4] of 168 µM (≈ 82.7 µg/mL), an IC50 [1] of 5 nM and a microsomal CLint at 1 µM [5] of 13.5 µL/min/mg. It also gave an AUC at 24 h [6] of 0.01 µM·h, an IC50 [7] of 166 nM and a Papp [8] of 9.2 ×10⁻⁶ cm/s. The AUC at 24 h [9] was 0.58 µM·h, the microsomal CLint at 1 µM [10] was 25 µL/min/mg and the Vd [11] was 1 L/kg. For the same molecule, the bioavailability [12] was 1.2%, the Ratio [13] was 0.7 and the Cmax [14] was 10 nM. For the same molecule, the AUC at 24 h [15] was 0.05 µM·h, the clearance [16] was 16.2 mL/min/kg and the IC50 [2] was 24 nM. For the same molecule, the solubility kinetic [17] was 175 µM (≈ 86.1 µg/mL), the solubility kinetic [18] was 124 µM (≈ 61 µg/mL) and the half-life [19] was 1.9 h. For the same molecule, the IC50 [3] was greater than 30000 nM.

`Cc1csc([C@@]2(CN)[C@@H]3CCN(c4cnc(Sc5cccnc5C(F)(F)F)c(N)n4)C[C@@H]32)n1` showed an IC50 [1] of 65 nM and an IC50 [2] of 9 nM.

Work on `Cc1csc([C@@]2(CN)[C@@H]3CCN(c4cnc5c(-c6ccc7nn(C)cc7c6Cl)n[nH]c5n4)C[C@@H]32)n1` yielded an IC50 [1] of 6 nM, an IC50 [2] of 14 nM and an IC50 [3] of 107 nM.

With `Cc1csc([C@@]2(CN)[C@@H]3CCN(c4cnc5c(-c6cccnc6C(F)(F)F)n[nH]c5n4)C[C@@H]32)n1` the IC50 [1] was 55 nM, the IC50 [2] was greater than 666 nM and the IC50 [3] was 5060 nM.

In the case of `Cc1csc([C@@]2(CN)[C@@H]3CN(c4cnc5c(-c6ccn7nccc7c6Cl)n[nH]c5n4)C[C@@H]32)n1`, the IC50 [1] is reported as 4 nM, the IC50 [2] is reported as 65 nM and the IC50 [3] is reported as 235 nM.

Molecule `Cc1nc(N2CCC3(CC2)CO[C@@H](C)[C@H]3N)c(CO)nc1-c1cccc(Cl)c1Cl` has an IC50 [7] of 4550 nM, an IC50 [2] of 22 nM and an IC50 [3] of 3350 nM.

`Cc1csc([C@@]2(CN)[C@@H]3CCN(c4nc5nc(Sc6cccnc6C(F)(F)F)cnc5[nH]4)C[C@@H]32)n1` showed an IC50 [1] of 9 nM and an IC50 [2] of 210 nM.

`Cc1csc([C@@]2(CN)[C@@H]3CCN(c4cnc5c(-c6ccc7nc(C)sc7c6Cl)n[nH]c5n4)C[C@@H]32)n1` gave an IC50 [1] of 2 nM, a Papp at 4 h, 5 µM [20] of 4.36 ×10⁻⁶ cm/s and an IC50 [2] of 4 nM. For the same molecule, the IC50 [3] was 24 nM.

`Cc1cccc([C@@]2(CN)[C@@H]3CN(c4cnc5c(-c6ccc7nn(C)cc7c6Cl)n[nH]c5n4)C[C@@H]32)n1` gave an IC50 [1] of 4 nM, an IC50 [2] of 90 nM and an IC50 [3] of 5870 nM.

`Cn1cc2c(Cl)c(-c3n[nH]c4nc(N5C[C@@H]6[C@H](C5)[C@@]6(CN)c5ccccc5)cnc34)ccc2n1` showed an IC50 [1] of 9 nM, an IC50 [2] of 70 nM and an IC50 [3] of 5350 nM.

With `Cc1csc([C@]2(CN)[C@@H]3CCN(c4cnc5c(-c6cccc(Cl)c6Cl)n[nH]c5n4)C[C@@H]32)n1` the IC50 [1] was 3 nM, the Papp at 4 h, 5 µM [20] was 1.75 ×10⁻⁶ cm/s and the IC50 [2] was 28 nM. The IC50 [3] was 58 nM.

For `Cc1csc([C@@]2(CN)[C@@H]3CCN(c4cnc5c(-c6cccc(Cl)c6Cl)n[nH]c5n4)C[C@@H]32)n1` (racemic), the IC50 [1] was 6 nM, the IC50 [2] was 71 nM and the IC50 [3] was 250 nM.

In the case of `N[C@]1(c2ccccc2)[C@@H]2CCN(c3nc4nc(Sc5cccnc5C(F)(F)F)cnc4[nH]3)C[C@@H]21`, the IC50 [1] is reported as 1410 nM.
